{"source": "patent US11298396B2", "about": "“Agent for inhibiting or reducing light sensitivity” (Osaka University, priority 2017, dated 2022)", "key": {"Klhl18 protein": {"system": "Klhl18 protein", "experiment": "Inhibition of Klhl18-mediated degradation of Unc119 in transfected HEK293T cells, Western blotting", "format": "cell-based, mouse", "description": "Retinal tissue was harvested from one month old Klhl18 KO mice and wild-type (C57BL/6J strain) mice (purchased from Japan SLC) according to the conventional method. The retinal tissue was dissolved in 2× sample buffer (0.1 M Tris-HCl (pH 6.8), 1% SDS, 5% β-mercaptoethanol, 10% glycerol, and 0.02% BPB) and heat-treated at 100° C. for 5 minutes. SDS-PAGE was performed and the separated proteins on the gel were electrically transferred to a PVDF membrane (Merck Millipore) at 12 V for 90 minutes. The PVDF membrane was blocked with blocking solution (5% skim milk and 0.05% Tween 20/TBS) with shaking at room temperature for 1 hour. The PVDF membrane was reacted with a primary antibody diluted in the blocking solution at 4° C. overnight. The primary antibody was anti-Unc119 antibody (mouse monoclonal, a gift from Dr. Haeseleer (University of Washington, USA) (Haeseleer, 2008), 1:10 dilution) or α-Tublin antibody (mouse monoclonal, Sigma, 1:6,000 dilution). After completion of reaction with the primary antibody, the PVDF membrane was washed three times with 0.05% Tween 20/TBS with shaking at room temperature for 10 minutes. The PVDF membrane was reacted with a secondary antibody diluted in the blocking solution at room temperature for 1 hour. The secondary antibody was anti-mouse IgG (H+L) HRP-conjugated antibody (goat polyclonal, Zymed, 1:6,000 dilution). After completion of reaction with the secondary antibody, the PVDF membrane was again washed three times with 0.05% Tween 20/TBS with shaking at room temperature for […]. The PVDF membrane was reacted with chemiluminescent reagent (Chemi-Lumi One (Nacalai Tesque)) or Pierce Western Blotting Substrate Plus (Thermo Fisher Scientific). The membrane was exposed to an X-ray film, and the protein of interest was detected using a film processor.\nThe HEK293T cell line was cultured in DMEM (Wako Pure Chemical Industries) supplemented with antibiotics (penicillin (100 μg/mL)/streptomycin (100 μg/mL)) and 10% FBS at 37° C. under 5% CO2. […]"}, "BALB/c mice [1]": {"system": "BALB/c mice", "experiment": "Light-induced damage in mice, electroretinogram (ERG) recording", "format": "in vivo, mouse", "conditions": "60 mg/kg subcutaneous; blue LED about 450 nm, about 7000 lux, 3 hours, cycle repeated for three days; ERG four days after final exposure; vs DMSO control (FIG. 24)", "description": "Wild-type or Klhl18 KO mice of postnatal 2 months were light adapted or dark adapted. Light adaptation was performed at a light level of about 1000 lux for 1 hour or longer, and dark adaptation was performed by keeping the mice in a dark room for 4 hours or longer. Anesthesia was performed on dark-adapted or light-adapted mice with intraperitoneal injection of ketamine (100 mg/kg body weight per mouse) and xylazine (10 mg/kg body weight per mouse) in saline. Pupils were dilated with topical administration to the eyes with a mixture of 0.5% tropicamide and 0.5% phenylephrine HCl. ERG responses were measured with LED electrodes that emit a white flash (PuREC; Mayo Corporation). The mouse cornea was brought into contact with the electrodes, and stimulated with the stimulating flash using LED Visual Stimulator (LS-100, Mayo Corporation), and the ERG waves were recorded by TA-100 (Mayo Corporation) (FIGS. 7A and 8A). Strobe light stimulation with four levels of stimulus intensities ranging from −4.0 to 1.0 log cd−s/m^2 (−4.0, −3.0, −1.0 and 1 log cd−s/m^2) were used for the scotopic ERGs to measure the function of rod photoreceptor cells. […] From the wave data, a-waves and b-waves were quantified and expressed as the mean value±standard error. The photopic ERGs were recorded on a rod-suppressing white background of 1.3 log cd/m^2. […]"}, "BALB/c mice [2]": {"system": "BALB/c mice", "experiment": "Light-induced damage in mice, fluorescence immunostaining of the retina", "format": "in vivo, mouse", "conditions": "60 mg/kg subcutaneous; blue light damage for three days; vs DMSO control (FIG. 25)", "description": "Fluorescent immunostaining was performed using the mouse retinal sections. Specifically, the mouse retinal sections prepared in the same manner as in Example 2 (2) were washed twice with PBS, and blocked with blocking buffer (4% Normal donkey serum/0.1% Triton X-100/PBS) at room temperature for 1 hour. The sections were reacted with a primary antibody at 4° C. overnight. The sections were washed three times with PBS, and reacted with a secondary antibody at room temperature for 2 hours. The primary antibody was anti-Rhodopsin antibody (rhodopsin, rabbit polyclonal, Santa Cruz, 1:500 dilution) or anti-S-opsin antibody (S-opsin (blue cone opsin), goat polyclonal, Santa Cruz, 1:500 dilution). The secondary antibody was Alexa Flour 488-conjugated anti-rabbit antibody (Thermo Fisher Scientific, 1:500 dilution) or Cy3 antibody (Jackson ImmunoResearch Laboratories, 1:500 dilution). After completion of reaction with the secondary antibody, the specimens were washed three times with PBS and sealed in mounting medium. All fluorescence images were taken under a confocal laser scanning microscope (LSM 700, Carl Zeiss).\nMLN4924 (Chemscene) (60 mg/kg) was subcutaneously injected into the back of 4-weeks-old BALB/c mice (Japan SLC) that were kept in a dark place for 7 hours to be adapted to darkness. […]"}, "BALB/c mice [3]": {"system": "BALB/c mice", "experiment": "Light-induced damage in mice, thickness of the photoreceptor layer (toluidine blue staining)", "format": "in vivo, mouse", "conditions": "60 mg/kg subcutaneous; blue light damage for three days; vs DMSO control (FIG. 26)", "description": "Retinal sections of wild-type control mice and Klhl18 KO mice with light-induced damage were prepared in the same manner as in Example 2 (2). The mouse retinal sections were used to measure the thickness of the photoreceptor layer in the same manner as in Example 5. Specifically, the sections were washed with PBS and stained with 0.1% toluidine blue (Sigma)/PBS for 1 minute. The sections were washed three times with PBS, and sealed in mounting medium. The sealed specimens were observed under an upright microscope equipped with a differential interference contrast objective lens. The thickness of the photoreceptor layer was determined by measuring the distance from the optic nerve.\nMLN4924 (Chemscene) (60 mg/kg) was subcutaneously injected into the back of 4-weeks-old BALB/c mice (Japan SLC) that were kept in a dark place for 7 hours to be adapted to darkness. Four hours later, the mice were placed in a box with four mirrored walls and a mirrored floor, and exposed to blue LED light. The wavelength of the light was about 450 nm, and the light reaching the mice was at about 7000 lux. After three hours of exposure to the blue light, the mice were kept in the normal environment for 10 hours. This cycle was repeated for three days. […]"}}, "note": "Residues, ends and D or L forms follow the SMILES beside them. *: point of attachment. Cbz = O=C(OCc1ccccc1)*", "data": [{"molecule": "CC(C)C[C@@H](C=O)NC(=O)[C@H](CC(C)C)NC(=O)[C@H](CC(C)C)NC(=O)OCc1ccccc1", "note": "[MG-132] (Cbz-Leu-Leu-Leu-aldehyde)", "values": [{"measurement": "degradation of the target protein Unc119 by the full-length Klhl18 protein", "setting": "Klhl18 protein; HEK293T cells, MG-132 final concentration 10 μM, 6 hours, vs 0.1% DMSO (FIG. 11)", "result": "inhibits degradation of the target protein Unc119 by the full-length Klhl18 protein"}]}, {"molecule": "NS(=O)(=O)OC[C@@H]1C[C@@H](n2ccc3c(N[C@H]4CCc5ccccc54)ncnc32)C[C@@H]1O", "note": "[MLN4924]", "values": [{"measurement": "degradation of the target Unc119 protein by the full-length Klhl18 protein", "setting": "Klhl18 protein; HEK293T cells, MLN4924 final concentration 0.3 μM, 6 hours, vs 0.3% DMSO (FIG. 15)", "result": "inhibits degradation of the target Unc119 protein by the full-length Klhl18 protein"}, {"measurement": "electric amplitudes of the a-waves (photoreceptor cell activity)", "setting": "BALB/c mice [1]", "result": "higher than those in the control mice"}, {"measurement": "electric amplitudes of the b-waves (bipolar cell activity)", "setting": "BALB/c mice [1]", "result": "higher than those in the control mice"}, {"measurement": "signal intensities and thickness of cone photoreceptor cells (markers: S-opsin and M-opsin)", "setting": "BALB/c mice [2]", "result": "better retained as compared with those in the control mice"}, {"measurement": "signal intensities and thickness of rod photoreceptor cells (marker: rhodopsin)", "setting": "BALB/c mice [2]", "result": "better retained as compared with those in the control mice"}, {"measurement": "thickness of the photoreceptor layer in the retina", "setting": "BALB/c mice [3]", "result": "better maintained as compared with that of the control mice"}]}, {"molecule": "C-terminal protein (C-terminal 298 residues) of the mouse Klhl18 gene: C-terminal 298 residues of mouse Klhl18 protein, expressed from plasmid pCAG-N-3× FLAG-C-Klhl18; acts as dominant negative (protein, left off: small tags and cut ends, C-terminal 298 residues of mouse Klhl18 protein, expressed from plasmid pCAG-N-3× FLAG-C-Klhl18; acts as dominant negative) RTRPRCCTSIAGLIYAVGGLNSAGDSLNVVEVFDPIANRWEKCHPMTTARSRVGVAVVNGLLYAIGGYDGQLRLSTVEAYNPETDTWTRVGSMNSKRSAMGTVVLDGQIYVCGGYDGNSSLNSVETYSPETDKWTVVTPMSSNRSAAGVTVFEGRIYVSGGHDGLQIFSSVEHYNHHTATWHPAASMLNKRCRHGAASLGSKMFVCGGYDGSGFLSIAEMYSSVADQWCLIVPMHTRRSRVSLVASCGRLYAVGGYDGQSNLSSVEMYDPETDRWTFMAPMACHEGGVGVGCIPLLTI", "values": [{"measurement": "degradation of the target protein Unc119 by the full-length Klhl18 protein", "setting": "Klhl18 protein; HEK293T cells co-transfected with FLAG-Klhl18, FLAG-C-terminal Klhl18 and HA-Unc119 plasmids, anti-HA Western blot (FIG. 10)", "result": "inhibits degradation of the target protein Unc119 by the full-length Klhl18 protein"}]}]}
